Results from US9705096B2, “Organic transistor, compound, organic semiconductor material for non-light-emitting organic semiconductor device, material for organic transistor, coating solution for non-light-emitting organic semiconductor device, organic semiconductor film for non-light-emitting organic semiconductor device, …” (FUJIFILM Corporation, priority 2014, dated 2017).

Test: Solubility in toluene
Type: physicochemical
Conditions: organic solvent or mixture, thermodynamic from solid; 20 mg compound mixed with toluene (1 mL)
Source text: A: The compound was completely dissolved.
B: A bit of the compound was left undissolved.
C: Most of the compound was left undissolved.

SMILES	solubility
CCc1cc2sc3cc4sc5cc(CC)sc5c4cc3c2s1 [Comparative compound 1, reference compound]	< 20 mg/mL
CC(C)CCCC(C)CCc1cc2sc3cc4sc5cc(CCC(C)CCCC(C)C)sc5c4cc3c2s1 (stereo not drawn) [Compound 31]	> 20 mg/mL
CC(C)CCCC(C)CCc1ccc(-c2cc3sc4cc5sc6cc(-c7ccc(CCC(C)CCCC(C)C)s7)sc6c5cc4c3s2)s1 (stereo not drawn) [Compound 33]	> 20 mg/mL
